The text below walks through data of US10961232B2, “Substituted pyrazines as ATR kinase inhibitors” (Vertex Pharmaceuticals Incorporated, priority 2008, dated 2021).

The structures appear in SMILES notation.

Sequence of full-length ATR (Q13535 whole entry): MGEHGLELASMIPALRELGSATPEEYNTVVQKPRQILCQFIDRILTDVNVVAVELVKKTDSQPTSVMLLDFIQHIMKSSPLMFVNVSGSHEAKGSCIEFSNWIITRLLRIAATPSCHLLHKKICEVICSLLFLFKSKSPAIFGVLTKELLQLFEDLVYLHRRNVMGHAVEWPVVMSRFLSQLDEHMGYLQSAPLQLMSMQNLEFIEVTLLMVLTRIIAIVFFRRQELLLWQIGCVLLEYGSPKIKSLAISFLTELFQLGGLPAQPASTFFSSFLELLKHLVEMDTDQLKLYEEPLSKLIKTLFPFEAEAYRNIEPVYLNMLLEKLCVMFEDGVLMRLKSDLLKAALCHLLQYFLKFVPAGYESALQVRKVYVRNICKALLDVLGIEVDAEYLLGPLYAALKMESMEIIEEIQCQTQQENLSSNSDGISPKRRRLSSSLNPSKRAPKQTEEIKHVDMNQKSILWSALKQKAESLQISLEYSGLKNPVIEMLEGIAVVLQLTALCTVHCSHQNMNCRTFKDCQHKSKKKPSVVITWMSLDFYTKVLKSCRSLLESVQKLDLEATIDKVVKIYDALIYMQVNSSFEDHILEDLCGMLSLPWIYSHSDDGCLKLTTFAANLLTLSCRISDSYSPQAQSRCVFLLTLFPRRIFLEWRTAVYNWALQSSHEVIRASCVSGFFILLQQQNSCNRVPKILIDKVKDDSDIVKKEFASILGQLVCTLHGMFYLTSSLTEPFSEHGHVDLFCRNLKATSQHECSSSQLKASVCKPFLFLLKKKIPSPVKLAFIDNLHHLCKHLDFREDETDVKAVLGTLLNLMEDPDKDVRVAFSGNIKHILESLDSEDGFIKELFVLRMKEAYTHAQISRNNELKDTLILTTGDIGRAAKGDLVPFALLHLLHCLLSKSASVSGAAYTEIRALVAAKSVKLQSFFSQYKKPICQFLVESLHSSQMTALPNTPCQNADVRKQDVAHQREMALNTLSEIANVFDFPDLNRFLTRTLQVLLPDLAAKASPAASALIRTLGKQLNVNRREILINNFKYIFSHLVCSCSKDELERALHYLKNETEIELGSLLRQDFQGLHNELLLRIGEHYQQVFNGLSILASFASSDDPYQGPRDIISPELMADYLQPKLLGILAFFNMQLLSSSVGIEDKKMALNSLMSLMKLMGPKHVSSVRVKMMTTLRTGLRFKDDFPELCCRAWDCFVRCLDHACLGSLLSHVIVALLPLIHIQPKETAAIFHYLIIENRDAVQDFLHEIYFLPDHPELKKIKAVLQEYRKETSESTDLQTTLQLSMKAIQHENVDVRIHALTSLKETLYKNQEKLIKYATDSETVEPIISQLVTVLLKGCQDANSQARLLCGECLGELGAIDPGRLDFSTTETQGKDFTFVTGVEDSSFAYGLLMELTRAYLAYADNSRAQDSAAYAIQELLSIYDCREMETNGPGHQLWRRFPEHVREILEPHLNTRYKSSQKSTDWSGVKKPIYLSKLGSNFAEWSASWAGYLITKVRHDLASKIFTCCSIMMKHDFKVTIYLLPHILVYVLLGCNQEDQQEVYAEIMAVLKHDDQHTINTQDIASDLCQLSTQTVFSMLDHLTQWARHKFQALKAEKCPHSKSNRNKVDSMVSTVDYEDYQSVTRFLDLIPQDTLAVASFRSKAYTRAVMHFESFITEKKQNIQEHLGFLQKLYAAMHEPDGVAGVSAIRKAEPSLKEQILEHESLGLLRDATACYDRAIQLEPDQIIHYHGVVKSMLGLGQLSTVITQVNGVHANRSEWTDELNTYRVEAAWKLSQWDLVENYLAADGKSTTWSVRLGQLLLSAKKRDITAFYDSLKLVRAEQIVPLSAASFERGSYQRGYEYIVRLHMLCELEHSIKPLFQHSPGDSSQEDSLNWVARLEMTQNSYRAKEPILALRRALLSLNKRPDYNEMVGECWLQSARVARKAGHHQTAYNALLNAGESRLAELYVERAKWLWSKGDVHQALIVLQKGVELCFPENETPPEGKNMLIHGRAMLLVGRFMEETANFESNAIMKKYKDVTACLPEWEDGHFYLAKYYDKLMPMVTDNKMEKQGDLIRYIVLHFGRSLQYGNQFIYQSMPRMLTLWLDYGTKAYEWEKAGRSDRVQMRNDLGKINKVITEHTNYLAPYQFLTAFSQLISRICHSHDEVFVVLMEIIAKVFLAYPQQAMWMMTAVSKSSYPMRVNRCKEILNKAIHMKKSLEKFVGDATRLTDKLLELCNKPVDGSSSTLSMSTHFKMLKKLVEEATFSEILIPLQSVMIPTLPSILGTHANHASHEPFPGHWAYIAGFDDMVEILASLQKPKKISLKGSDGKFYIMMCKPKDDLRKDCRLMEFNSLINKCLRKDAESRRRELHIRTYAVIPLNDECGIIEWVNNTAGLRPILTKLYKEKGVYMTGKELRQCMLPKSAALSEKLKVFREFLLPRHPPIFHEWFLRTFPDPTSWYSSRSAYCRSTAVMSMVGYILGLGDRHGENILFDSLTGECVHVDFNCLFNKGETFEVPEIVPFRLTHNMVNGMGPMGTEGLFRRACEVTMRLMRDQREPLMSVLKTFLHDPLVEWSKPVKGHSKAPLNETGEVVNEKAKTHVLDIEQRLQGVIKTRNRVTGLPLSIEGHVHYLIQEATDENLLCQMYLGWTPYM

The first test has as its target full-length ATR (Homo sapiens (Human), UniProt Q13535). In words: ATR inhibition assay (radioactive-phosphate incorporation). Type of test: biochemical.
Details: not given
The method, then:
Example 76A: ATR Inhibition Assay
Compounds were screened for their ability to inhibit ATR kinase using a radioactive-phosphate incorporation assay. Assays were carried out in a mixture of 50 mM Tris/HCl (pH 7.5), 10 mM MgCl2 and 1 mM DTT.
Assays were carried out at 25° C. in the presence of 5 nM full-length ATR. An assay stock buffer solution was prepared containing all of the reagents listed above, with the exception of ATP and the test compound of interest. […] The plate was pre-incubated for 10 minutes at 25° C. and the reaction initiated by addition of 15 μL [γ-33P]ATP (final concentration 10 μM).
The reaction was stopped after […] by the addition of 30 μL, 0.1M phosphoric acid containing 2 mM ATP. A multiscreen phosphocellulose filter 96-well plate (Millipore, Cat no. MAPHN0B50) was pretreated with 100 μL, 0.2M phosphoric acid prior to the addition of 45 μL of the stopped assay mixture. […] After drying, 100 μL Optiphase ‘SuperMix’ liquid scintillation cocktail (Perkin Elmer) was added to the well prior to scintillation counting (1450 Microbeta Liquid Scintillation Counter, Wallac).
After removing mean background values for all of the data points, Ki(app) data were calculated from non-linear regression analysis of the initial rate data using the Prism software package (GraphPad Prism version 3.0cx for Macintosh, GraphPad Software, San Diego, Calif., USA).
Turning to `CN(C)C1CCN(C(=O)c2cccc(-c3cnc(N)c(C(=O)Nc4ccccc4)n3)c2)C1` (stereo not shown) [Compound I-55, 3-amino-6-(3-(3-(dimethylamino)pyrrolidine-1-carbonyl)phenyl)-N-phenylpyrazine-2-carboxamide], the Ki lay within 100 to 5000 nM. With `Nc1ncc(-c2cccc(C(=O)NC3CCC(O)CC3)c2)nc1C(=O)Nc1ccccc1` (stereo not shown) [Compound I-57, 3-amino-6-(3-(4-hydroxycyclohexylcarbamoyl)phenyl)-N-phenylpyrazine-2-carboxamide], the Ki is 100 to 5000 nM.

Turning to `CN(C)C1CCN(C(=O)c2ccc(-c3cnc(N)c(C(=O)Nc4ccccc4)n3)cc2)C1` (stereo not shown) [Compound I-76, 3-amino-6-(4-(3-(dimethylamino)pyrrolidine-1-carbonyl)phenyl)-N-phenylpyrazine-2-carboxamide], the Ki is 10 to 100 nM. Consider `Nc1ncc(-c2ccc(C(=O)N3CCCNCC3)cc2)nc1-c1noc(-c2ccccc2)n1` [IA-2], for which the Ki is 10 to 100 nM. On the same count and under the same terms, the figure for `CC(C)(C)CCN1CCCN(C(=O)c2ccc(-c3cnc(N)c(-c4nnc(-c5ccccc5)o4)n3)cc2)CC1` [IA-27] is 10 to 100 nM; for `Nc1ncc(-c2ccc(C(=O)N3CCCNCC3)c3ccccc23)nc1-c1nnc(-c2ccccc2)o1` [IA-48] it is 10 to 100 nM.

In the case of `CC(NC(=O)OC(C)(C)C)c1cccc(-c2nnc(-c3nc(-c4ccc(S(=O)(=O)C(C)C)cc4)cnc3N)o2)c1` (stereo not shown) [IA-154, tert-butyl N-[1-[3-[5-[3-amino-6-(4-isopropylsulfonylphenyl)pyrazin-2-yl]-1,3,4-oxadiazol-2-yl]phenyl]ethyl]carbamate], the Ki was not above 10 nM.

The test is the same for the next values; noted with them: ATR Inhibition Ki values; 5 nM full-length ATR, 10 μM ATP.
For `CS(=O)(=O)c1ccc(-c2cnc(N)c(-c3nnc(-c4ccccc4)o3)n2)cc1` [IA-89, 5-(4-methylsulfonylphenyl)-3-(5-phenyl-1,3,4-oxadiazol-2-yl)pyrazin-2-amine], the Ki is not above 10 nM. Still for that read-out and setting: then `C[S+]([O-])c1ccc(-c2cnc(N)c(-c3nnc(-c4ccccc4)o3)n2)cc1` (stereo not shown) [IA-274, 5-(4-methylsulfinylphenyl)-3-(5-phenyl-1,3,4-oxadiazol-2-yl)pyrazin-2-amine], with not above 10 nM.

As for `CNCc1ccc(-c2nnc(-c3nc(-c4ccc(S(=O)(=O)C(C)C)c(OC(F)(F)F)c4)cnc3N)o2)cc1` [IA-290, 5-[4-isopropylsulfonyl-3-(trifluoromethoxy)phenyl]-3-[5-[4-(methylaminomethyl)phenyl]-1,3,4-oxadiazol-2-yl]pyrazin-2-amine], the Ki is not above 10 nM. The same measure, in the same setting: the figure for `CNCc1ccc(-c2nnc(-c3nc(-c4ccc(S(=O)(=O)C(C)CCOC)cc4)cnc3N)o2)c(F)c1` (stereo not shown) [IA-332, 3-[5-[2-fluoro-4-(methylaminomethyl)phenyl]-1,3,4-oxadiazol-2-yl]-5-[4-(3-methoxy-1-methyl-propyl)sulfonylphenyl]pyrazin-2-amine] is not above 10 nM. The same measure, in the same setting: the figure for `CCc1cccc(NC(=O)c2nc(-c3ccc(S(C)(=O)=O)cc3)cnc2N)n1` [VII-4] is 10 to 100 nM.

Regarding `Cc1cccc(NC(=O)c2nc(-c3ccc(S(C)(=O)=O)cc3)cnc2N)n1` [VII-5], the Ki lay within 10 to 100 nM.
